Data from patent US8129427B2, “2-phenylethylamino derivatives as calcium and/or sodium channel modulators” (Newron Pharmaceuticals S.p.A., priority 2005, dated 2012).

How the values were obtained:
TTXs sodium channels = assay: TTXs-sodium channel influx assay (membrane potential fluorescence); format: cell-based, rat; settings: ND7/23 cells, veratridine 100 μM
Description: ND7/23 rat dorsal root ganglion-derived cell line endogenously expresses a mixed population of TTXs sodium channels (such as Nav1.3, Nav1.2, Nav1.1, Nav1.6). These cells lack of TTXr sodium channels as shown by the absence of their respective transcripts. ND7/23 cells were grown in DMEM supplemented with 10% FBS and 1 mM sodium piruvate.
The cells were seeded at 50,000 cells/well on 96 poly-L-lysine-coated plates and further incubated for 18-24 h before use.
The Membrane Potential Kit Assay (Molecular Devices), based on a negatively charged fluorescent dye able to monitor changes in membrane potential caused by the sodium influx due to the channel opening, was used for the assay.
Cells were incubated with the dye loading for 30 minutes at 25° C. Then, 100 nM of the toxin Anemonia sulcata (used as enhancer of the channel opener response) alone or in the presence of TTX (as reference standard) or test compound were added for further 15 minutes.
The fluorescence (excitation: 530 nm, emission: 565 nm wavelength) was measured before and after (40-45 s) the automated injection of the sodium channel opener veratridine (100 μM) using a Victor plate reader (Perkin Elmer).
The inhibition curves were calculated from 5 concentrations, each in triplicate, and the IC50 determined using a linear regression analysis.

[1] = system: amphetamine-chlordiazepoxide induced increase in locomotor activity in mice; assay: Amphetamine and chlordiazepoxide-induced hyperlocomotion in mice; format: in vivo, mouse; settings: test compound 5 mg/kg given twice, FIG. 1
Description: In this model, mice are treated with a mixture of d-amphetamine plus an anxiolytic dose of the benzodiazepine, chlordiazepoxide (Rushton R, Steinberg H. Combined effects of chlordiazepoxide and d-amphetamine on activity of rats in an unfamiliar environment. Nature 1966; 211:1312-3; R. Arban, G. Maraia, K. Brackenborough, L. Winyard, A. Wilson, P. Gerrard, C. Large. Evaluation of the effects of lamotrigine, valproate and carbamazepine in a rodent model of mania Behavioural Brain Research, 158: 123-132). The model has been claimed to mimic some aspects of mania in bipolar disorder. Importantly, the hyperactivity induced by the mixture of d-amphetamine and chlordiazepoxide could be prevented by prior administration of the established mood stabilizer, lithium, as well as other mood stabilizers drugs (e.g. magnesium valproate and carbamazepine). […]
Amphetamine (AMP) (2.5 mg/kg) plus chlordiazepoxide hydrochloride (CDZ) (3 mg/kg/ip) were administered to male Albino Swiss mice (25-32 g) in a volume of 10 ml/kg. The locomotor activity was recorded using Opto-M3 System (Columbus Instruments) which is multi-channel activity monitor. […] The locomotor activity (ambulation and total activity count) was evaluated for 30 min. […]
Statistical analysis: the data were evaluated by an analysis of variance (ANOVA), followed, when appropriate, by individual comparison with the control using Dunnett's test. […]

[2] = system: PCP induced deficits in the 5-CSRT task in DBA/2N mice; assay: Cognitive impairment in schizophrenia: PCP-induced deficits in five-choice serial reaction time task; format: in vivo, mouse
N-type calcium channels = N-type calcium channels (Homo sapiens, UniProt Q00975); assay: N-type calcium channel influx assay (fluorescence); format: cell-based; settings: differentiated IMR32 cells, nifedipine 1 μM, 100 mM KCl depolarization; read-out: IC50
L-type calcium channels = format: cell-based, mouse; settings: AtT20/D16v-F2 cells, ω-conotoxin 1 μM, 100 mM KCl depolarization
[3] = molecular target: recombinant human N-type channels, h α1B (hCav2.2)+β1b+α2δ-1 subunits (Homo sapiens, UniProt Q00975); assay: Patch clamp studies of calcium currents inhibition in HEK293 cells; format: cell-based; settings: tonic block, preconditioning −50/−55 mV (half maximal steady-state inactivated condition); read-out: IC50 (Vhalf)
Description: Functional inhibition of the N-type Ca currents was studied using whole cell patch clamp methods (Hamill O. P., Marty A., Neher E., Sakmann B., Sigworth F. J. Pflugers Arch. (1981) 391: 85-100) on HEK293 cells expressing recombinant human N-type channels, obtained after transient transfection of h α1B (hCav2.2)+β1b+α2δ-1 subunits.
Membrane currents were recorded and filtered at 5 kHz with an Axon Axopatch 200B amplifier and digitized with an Axon Digidata 1322A (Axon Instruments, CA, USA). Voltage clamping of membrane potentials and data acquisition were controlled online with Axon pClamp8 software. Measuring and reference electrodes were AgCl—Ag electrodes. Cells had initial seal resistances of >1 GΩ and access resistances of 4.2±0.2 MΩ. Cells were continuously superfused with extracellular solutions using a Biologic RSC-200.
For calcium currents recording the control bath solution contained (mM): Choline chloride (70), MgCl2 (1), BaCl2 (20), TEA.Cl (50), Hepes (10), Glucose (10). Internal pipette solution consisted of (mM): CsCl (140), EGTA (10), MgCl2 (2), Hepes (10), MgATP (1), GTP Tris (0.3).
Compounds were dissolved as 20 mM stock solutions in DMSO and then diluted to the final concentration in the external solutions.
A two-step protocol was used to determine the voltage dependence of the block:
N-type current was activated by a 600 ms step pulse to +10 mV (test pulse) from a 5000 ms preconditioning potential of −110 mV (resting condition) or −50/−55 mV (half maximal steady-state inactivated condition), respectively.
The amplitude of calcium current peaks evoked by the respective test pulses at a frequency of 0.06 Hz were measured before and after exposure to the test substance. Tonic block of currents was calculated as the difference between the peak calcium current measured at the end of a stabilization period in the control external bath solution and peak currents measured at the end of test substance perfusion period (when steady state is reached) divided by control peaks. […]

[4] = 10 mg/Kg i.p. + PCP (1.5 mg/kg)

Sequence of recombinant human N-type channels, h α1B (hCav2.2)+β1b+α2δ-1 subunits (Q00975 whole entry): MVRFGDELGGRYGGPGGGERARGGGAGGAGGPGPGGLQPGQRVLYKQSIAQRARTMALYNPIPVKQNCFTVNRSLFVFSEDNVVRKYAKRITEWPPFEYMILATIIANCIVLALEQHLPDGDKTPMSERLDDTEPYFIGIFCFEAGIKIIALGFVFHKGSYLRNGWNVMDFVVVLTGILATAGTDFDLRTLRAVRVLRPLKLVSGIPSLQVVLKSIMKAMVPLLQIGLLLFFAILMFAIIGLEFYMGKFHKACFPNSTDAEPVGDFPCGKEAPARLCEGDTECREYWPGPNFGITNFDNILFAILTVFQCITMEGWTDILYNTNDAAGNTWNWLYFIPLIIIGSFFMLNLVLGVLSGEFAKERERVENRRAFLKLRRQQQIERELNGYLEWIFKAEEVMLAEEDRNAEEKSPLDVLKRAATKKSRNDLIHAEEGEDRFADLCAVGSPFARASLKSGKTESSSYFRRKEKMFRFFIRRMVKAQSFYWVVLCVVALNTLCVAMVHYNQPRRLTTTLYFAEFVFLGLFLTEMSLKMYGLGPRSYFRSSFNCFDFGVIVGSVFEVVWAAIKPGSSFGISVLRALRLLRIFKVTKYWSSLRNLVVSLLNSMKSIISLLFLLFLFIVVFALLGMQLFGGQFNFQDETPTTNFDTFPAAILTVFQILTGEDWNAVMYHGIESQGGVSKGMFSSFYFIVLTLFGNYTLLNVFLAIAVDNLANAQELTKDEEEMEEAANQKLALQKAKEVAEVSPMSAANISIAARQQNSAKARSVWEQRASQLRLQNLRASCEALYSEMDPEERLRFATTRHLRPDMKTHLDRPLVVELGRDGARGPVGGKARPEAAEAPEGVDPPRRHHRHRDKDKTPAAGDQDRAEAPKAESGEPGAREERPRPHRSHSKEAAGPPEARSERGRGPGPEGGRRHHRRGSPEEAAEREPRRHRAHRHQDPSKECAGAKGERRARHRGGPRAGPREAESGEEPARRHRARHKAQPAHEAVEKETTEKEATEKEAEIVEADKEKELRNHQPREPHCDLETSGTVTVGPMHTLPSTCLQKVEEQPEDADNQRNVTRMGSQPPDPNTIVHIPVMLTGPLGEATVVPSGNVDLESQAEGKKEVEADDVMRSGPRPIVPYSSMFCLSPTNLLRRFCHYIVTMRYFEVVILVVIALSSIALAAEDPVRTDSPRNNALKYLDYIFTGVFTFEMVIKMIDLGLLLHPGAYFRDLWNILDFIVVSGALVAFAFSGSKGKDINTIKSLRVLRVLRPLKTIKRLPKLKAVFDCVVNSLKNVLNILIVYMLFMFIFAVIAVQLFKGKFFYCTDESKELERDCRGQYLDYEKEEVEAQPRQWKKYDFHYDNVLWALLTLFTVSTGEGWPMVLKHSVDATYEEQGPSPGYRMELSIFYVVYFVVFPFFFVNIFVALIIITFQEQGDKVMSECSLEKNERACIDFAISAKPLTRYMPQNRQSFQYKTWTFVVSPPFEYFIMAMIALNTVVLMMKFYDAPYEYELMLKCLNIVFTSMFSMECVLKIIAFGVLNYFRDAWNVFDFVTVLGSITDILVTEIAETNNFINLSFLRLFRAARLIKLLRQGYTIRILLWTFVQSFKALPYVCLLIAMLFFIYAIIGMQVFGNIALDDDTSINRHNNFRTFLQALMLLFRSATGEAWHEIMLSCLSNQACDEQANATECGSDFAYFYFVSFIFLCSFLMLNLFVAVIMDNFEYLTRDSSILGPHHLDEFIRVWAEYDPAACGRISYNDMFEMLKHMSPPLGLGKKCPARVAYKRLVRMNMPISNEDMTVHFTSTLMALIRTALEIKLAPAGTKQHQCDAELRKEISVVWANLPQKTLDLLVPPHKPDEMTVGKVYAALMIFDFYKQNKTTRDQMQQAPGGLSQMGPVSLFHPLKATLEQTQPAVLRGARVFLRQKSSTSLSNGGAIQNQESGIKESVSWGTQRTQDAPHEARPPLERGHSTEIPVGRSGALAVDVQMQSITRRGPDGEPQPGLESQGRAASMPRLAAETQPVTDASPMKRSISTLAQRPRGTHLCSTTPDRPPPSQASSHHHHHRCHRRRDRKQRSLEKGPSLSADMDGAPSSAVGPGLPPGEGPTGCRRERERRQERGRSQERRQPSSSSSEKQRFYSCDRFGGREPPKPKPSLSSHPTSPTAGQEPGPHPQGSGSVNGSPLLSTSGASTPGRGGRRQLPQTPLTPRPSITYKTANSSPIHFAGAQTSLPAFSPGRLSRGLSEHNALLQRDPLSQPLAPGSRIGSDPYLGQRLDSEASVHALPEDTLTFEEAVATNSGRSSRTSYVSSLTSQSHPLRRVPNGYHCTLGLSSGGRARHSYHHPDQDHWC
Sequence of recombinant human N-type channels, h α1B (hCav2.2)+β1b+α2δ-1 subunits (Q02641 whole entry partner): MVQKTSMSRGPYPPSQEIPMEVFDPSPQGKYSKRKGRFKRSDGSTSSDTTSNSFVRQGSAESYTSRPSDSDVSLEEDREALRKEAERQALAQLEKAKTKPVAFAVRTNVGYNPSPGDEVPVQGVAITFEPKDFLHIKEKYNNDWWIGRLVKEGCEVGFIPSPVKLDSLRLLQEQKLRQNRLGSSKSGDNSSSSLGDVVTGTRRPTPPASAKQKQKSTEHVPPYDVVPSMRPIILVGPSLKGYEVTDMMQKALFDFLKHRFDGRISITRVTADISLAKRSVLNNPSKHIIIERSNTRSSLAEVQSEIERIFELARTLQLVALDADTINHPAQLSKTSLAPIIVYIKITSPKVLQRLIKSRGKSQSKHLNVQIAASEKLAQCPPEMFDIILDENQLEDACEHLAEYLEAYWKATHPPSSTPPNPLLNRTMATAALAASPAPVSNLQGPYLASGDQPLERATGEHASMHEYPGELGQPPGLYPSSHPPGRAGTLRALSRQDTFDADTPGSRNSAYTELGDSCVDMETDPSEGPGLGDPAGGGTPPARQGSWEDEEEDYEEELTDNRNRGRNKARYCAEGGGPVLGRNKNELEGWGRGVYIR
Sequence of recombinant human N-type channels, h α1B (hCav2.2)+β1b+α2δ-1 subunits (P54289 25-956 partner limits assumed): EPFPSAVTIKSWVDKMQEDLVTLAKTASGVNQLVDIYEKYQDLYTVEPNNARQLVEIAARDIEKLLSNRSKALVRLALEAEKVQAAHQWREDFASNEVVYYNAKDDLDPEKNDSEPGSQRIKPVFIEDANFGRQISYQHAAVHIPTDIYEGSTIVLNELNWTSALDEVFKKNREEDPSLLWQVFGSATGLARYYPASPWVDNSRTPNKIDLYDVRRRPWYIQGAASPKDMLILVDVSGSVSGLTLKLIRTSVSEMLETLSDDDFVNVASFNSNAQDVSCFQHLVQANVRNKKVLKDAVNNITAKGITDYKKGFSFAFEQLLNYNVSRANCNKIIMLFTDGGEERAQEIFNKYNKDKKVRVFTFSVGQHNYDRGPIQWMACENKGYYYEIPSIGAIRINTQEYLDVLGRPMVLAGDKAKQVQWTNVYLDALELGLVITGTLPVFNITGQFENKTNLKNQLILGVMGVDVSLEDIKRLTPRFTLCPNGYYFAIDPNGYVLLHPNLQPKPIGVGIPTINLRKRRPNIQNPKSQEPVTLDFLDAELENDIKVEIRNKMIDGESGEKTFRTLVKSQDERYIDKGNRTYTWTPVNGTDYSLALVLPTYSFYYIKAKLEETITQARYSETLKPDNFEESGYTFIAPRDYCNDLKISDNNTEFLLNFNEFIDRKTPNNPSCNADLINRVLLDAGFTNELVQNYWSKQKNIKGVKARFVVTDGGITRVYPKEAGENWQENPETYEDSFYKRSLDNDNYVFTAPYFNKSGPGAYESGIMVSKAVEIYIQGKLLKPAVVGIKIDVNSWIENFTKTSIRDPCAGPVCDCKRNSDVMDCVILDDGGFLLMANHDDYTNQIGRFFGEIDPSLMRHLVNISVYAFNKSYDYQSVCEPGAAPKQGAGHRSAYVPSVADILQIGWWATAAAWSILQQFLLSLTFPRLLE
Sequence of recombinant human N-type channels, h α1B (hCav2.2)+β1b+α2δ-1 subunits (P54289 957-1103 partner limits assumed): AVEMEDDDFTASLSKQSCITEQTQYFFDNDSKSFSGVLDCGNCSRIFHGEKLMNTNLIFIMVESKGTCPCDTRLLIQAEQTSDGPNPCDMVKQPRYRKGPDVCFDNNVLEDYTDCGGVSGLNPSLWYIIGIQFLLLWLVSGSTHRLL
Sequence of N-type calcium channels (Q00975 whole entry): as the sequence (Q00975 whole entry) above
Sequence of N-type calcium channels (Q02641 whole entry partner): as the sequence (Q02641 whole entry partner) above
Sequence of N-type calcium channels (P54289 25-956 partner limits assumed): as the sequence (P54289 25-956 partner limits assumed) above
Sequence of N-type calcium channels (P54289 957-1103 partner limits assumed): as the sequence (P54289 957-1103 partner limits assumed) above

SMILES	IC50 (TTXs sodium channels) [µM]	effect on amphetamine-chlordiazepoxide induced increase in locomotor activity [1]	N of anticipatory resposnses [2, 4]	N of perseverative responses [2, 4]	N of anticipatory resposnses ([2]; 10 mg/Kg i.p. + vehicle)	N of perseverative responses ([2]; 10 mg/Kg i.p. + vehicle)	IC50 (N-type calcium channels) [µM]	IC50 (L-type calcium channels) [µM]	IC50 [3] [µM]
CCCCOc1cccc(CCN(CC(=O)N(C)C)CC2CCOC2)c1.Cl (racemic) [Example 96, 2-[[2-(3-Butoxy-phenyl)-ethyl]-(tetrahydrofuran-3-ylmethyl)amino]-N,N-dimethyl-acetamide hydrochloride]	2	preventing the amphetamine-chlordiazepoxide induced increase in locomotor activity	3.7 ± 1.6	15.7 ± 3.1	3.3 ± 0.7	20.9 ± 1.3	–	–	–
C[C@H](NCc1ccc(OCc2ccccc2F)cc1)C(N)=O [ralfinamide, (S)-(+)-2-[4-(2-fluoro-benzyloxy)-benzylamino]-propanamide, reference compound]	9.5	–	–	–	–	–	23	26	15
